Data: the supplement of paper PMC10307832

How the values were obtained:
Test in all cases: relative viability (nuclei count vs DMSO), 5 days (fraction); higher = more cells survive
Pictilisib + Trametinib = compound: CS(=O)(=O)N1CCN(Cc2cc3nc(-c4cccc5[nH]ncc45)nc(N4CCOCC4)c3s2)CC1 [Pictilisib] + CC(=O)Nc1cccc(-n2c(=O)n(C3CC3)c(=O)c3c(Nc4ccc(I)cc4F)n(C)c(=O)c(C)c32)c1 [Trametinib] (partner 0.02 µM)
Outline: (§1)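 Relative viability divides the nuclei count in treated wells by that in vehicle wells. Lung cancer cell lines were seeded in 1536-well plates, dosed by pin tool the next day, and fixed and stained after 5 days in one step with final 0.05% Triton X-100, 1% formaldehyde and 1 ug/ml Hoechst. Dosing was a single drug or a fixed anchor-drug dose plus five library-drug doses (not always all listed) in √10 steps, and values are medians of duplicate plates imaged at 4×.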

Pictilisib + AZD7762 = compound: CS(=O)(=O)N1CCN(Cc2cc3nc(-c4cccc5[nH]ncc45)nc(N4CCOCC4)c3s2)CC1 [Pictilisib] + NC(=O)Nc1cc(-c2cccc(F)c2)sc1C(=O)N[C@H]1CCCNC1 [AZD7762] (partner 0.2 µM)
Outline: as §1

MK-2206 + Luminespib = compound: NC1(c2ccc(-c3nc4ccn5c(=O)[nH]nc5c4cc3-c3ccccc3)cc2)CCC1 [MK-2206] + CCNC(=O)c1noc(-c2cc(C(C)C)c(O)cc2O)c1-c1ccc(CN2CCOCC2)cc1 [Luminespib] (partner 0.01 µM)
Outline: as §1

MK-2206 + Dasatinib = compound: NC1(c2ccc(-c3nc4ccn5c(=O)[nH]nc5c4cc3-c3ccccc3)cc2)CCC1 [MK-2206] + Cc1nc(Nc2ncc(C(=O)Nc3c(C)cccc3Cl)s2)cc(N2CCN(CCO)CC2)n1 [Dasatinib] (partner 0.075 µM)
Outline: as §1

MK-2206 + Vorinostat = compound: NC1(c2ccc(-c3nc4ccn5c(=O)[nH]nc5c4cc3-c3ccccc3)cc2)CCC1 [MK-2206] + O=C(CCCCCCC(=O)Nc1ccccc1)NO [Vorinostat] (partner 1 µM)
Outline: as §1

Cell Line	relative viability (Pictilisib + Trametinib; first compound 0.02 µM)	relative viability (Pictilisib + Trametinib; first compound 0.06325 µM)	relative viability (Pictilisib + Trametinib; first compound 0.6325 µM)	relative viability (Pictilisib + Trametinib; first compound 2 µM)	relative viability (Pictilisib + AZD7762; first compound 0.02 µM)	relative viability (Pictilisib + AZD7762; first compound 0.06325 µM)	relative viability (Pictilisib + AZD7762; first compound 0.6325 µM)	relative viability (Pictilisib + AZD7762; first compound 2 µM)	relative viability (MK-2206 + Luminespib; first compound 0.01 µM)	relative viability (MK-2206 + Luminespib; first compound 0.03162 µM)	relative viability (MK-2206 + Luminespib; first compound 0.3162 µM)	relative viability (MK-2206 + Luminespib; first compound 1 µM)	relative viability (MK-2206 + Dasatinib; first compound 0.01 µM)	relative viability (MK-2206 + Dasatinib; first compound 0.03162 µM)	relative viability (MK-2206 + Dasatinib; first compound 0.3162 µM)	relative viability (MK-2206 + Dasatinib; first compound 1 µM)	relative viability (MK-2206 + Vorinostat; first compound 0.01 µM)	relative viability (MK-2206 + Vorinostat; first compound 0.03162 µM)	relative viability (MK-2206 + Vorinostat; first compound 0.3162 µM)	relative viability (MK-2206 + Vorinostat; first compound 1 µM)
NCI-H441	0.462	0.521	0.258	0.195	1.18	1.11	1.11	0.7	0.31	0.409	0.271	0.262	0.566	0.503	0.501	0.422	0.76	0.707	0.701	0.565
NCI-H520	0.57	0.64	0.215	0.14					0.213	0.214	0.203	0.207	0.179	0.178	0.189	0.18	0.677	0.677	0.337	0.31
CAL-12T	0.332	0.331	0.221	0.178	0.609	0.845	0.724	0.626	0.362	0.515	0.457	0.477	0.486	0.504	0.355	0.345	0.672	0.8	0.748	0.768
HCC-827	0.519	0.422	0.378	0.235	0.17	0.153	0.154	0.122	0.638	0.723	0.421	0.636	0.476	0.272	0.258	0.362	0.791	0.847	0.816	0.323
LC-2-ad	0.892	0.945	0.73	0.629	0.814	0.799	0.646	0.407	1.01	1.01	1.24	1.08	0.581	0.579	0.505	0.2	0.663	0.72	0.753	0.665
NCI-H2170	0.864	0.916	0.784	0.587	0.879	0.917	0.645	0.422	0.697	0.822	0.616	0.557	0.611	0.504	0.625	0.559	0.829	0.847	0.769	0.699
SW 1573	0.563	0.473	0.379	0.239					0.275	0.192	0.201	0.184	0.431	0.554	0.364	0.419	0.665	0.94	0.449	0.6
SK-MES-1	0.537	0.434	0.331	0.226					0.901	0.756	0.751	0.751	0.396	0.437	0.356	0.425	1.02	1.15	1.02	1.05
NCI-H1648	0.363	0.401	0.236	0.222	0.777	0.735	0.56	0.316									0.475	0.422	0.445	0.432
NCI-H1793	0.397	0.448	0.332	0.211	0.449	0.404	0.226	0.142	0.186	0.178	0.164	0.174	0.474	0.514	0.344	0.317	0.818	0.773	0.636	0.478
LCLC-97TM1	0.204	0.226	0.142	0.0739	0.34	0.469	0.258	0.133	0.873	0.775	0.618	0.616	0.847	0.858	0.893	0.898	0.578	0.779	0.625	0.734
NCI-H1915	0.322	0.295	0.285	0.244	0.681	0.716	0.579	0.525	0.86	0.853	0.787	0.72	0.348	0.329	0.348	0.271	0.567	0.511	0.483	0.534
NCI-H661	0.532	0.589	0.469	0.356					0.93	0.884	0.968	0.947	0.898	0.907	0.856	0.949	0.759	0.737	0.767	0.681
NCI-H2405	0.719	0.515	0.355	0.254	0.784	0.629	0.427	0.264	0.713	0.853	0.532	0.559	0.208	0.241	0.182	0.231	1.04	1.09	1.07	0.894
NCI-H2347	0.271	0.269	0.25	0.24	0.796	0.806	0.546	0.396	0.46	0.399	0.426	0.721	0.381	0.315	0.281	0.254	0.641	0.581	0.645	0.555
NCI-H1651	0.753	0.825	0.7	0.656	0.445	0.423	0.444	0.263	0.865	0.888	0.808	0.965	0.386	0.448	0.478	0.405	0.568	0.583	0.597	0.461
H3255	0.611	0.556	0.394	0.243	0.814	0.8	0.832	0.578	0.872	1.12	0.754	0.835	0.347	0.344	0.288	0.284	0.779	0.803	0.724	0.617

Cell Line	relative viability (Pictilisib + Trametinib; first compound 0.02 µM)	relative viability (Pictilisib + Trametinib; first compound 0.06325 µM)	relative viability (Pictilisib + Trametinib; first compound 0.6325 µM)	relative viability (Pictilisib + Trametinib; first compound 2 µM)	relative viability (Pictilisib + AZD7762; first compound 0.02 µM)	relative viability (Pictilisib + AZD7762; first compound 0.06325 µM)	relative viability (Pictilisib + AZD7762; first compound 0.6325 µM)	relative viability (Pictilisib + AZD7762; first compound 2 µM)	relative viability (MK-2206 + Luminespib; first compound 0.01 µM)	relative viability (MK-2206 + Luminespib; first compound 0.03162 µM)	relative viability (MK-2206 + Luminespib; first compound 0.3162 µM)	relative viability (MK-2206 + Luminespib; first compound 1 µM)	relative viability (MK-2206 + Dasatinib; first compound 0.01 µM)	relative viability (MK-2206 + Dasatinib; first compound 0.03162 µM)	relative viability (MK-2206 + Dasatinib; first compound 0.3162 µM)	relative viability (MK-2206 + Dasatinib; first compound 1 µM)	relative viability (MK-2206 + Vorinostat; first compound 0.01 µM)	relative viability (MK-2206 + Vorinostat; first compound 0.03162 µM)	relative viability (MK-2206 + Vorinostat; first compound 0.3162 µM)	relative viability (MK-2206 + Vorinostat; first compound 1 µM)
NCI-H2228	0.391	0.519	0.199	0.148					0.167	0.188	0.14	0.145	0.533	0.485	0.355	0.266	0.741	0.857	0.588	0.386
HCC-366	0.374	0.2	0.157	0.0661	0.316	0.259	0.204	0.0615					0.696	0.68	0.434	0.222	0.341	0.448	0.26	0.254
NCI-H1650	0.595	0.662	0.506	0.382					0.185	0.182	0.215	0.183	0.312	0.273	0.215	0.244	0.532	0.612	0.656	0.519
HCC-78	0.681	0.561	0.404	0.281	0.569	0.559	0.395	0.233					0.511		0.373	0.227	0.439	0.504	0.408	0.398
IA-LM																	0.935	1.11	1.02	1.02
COR-L 105	0.382	0.4	0.432	0.38					0.868	0.803	0.888	0.729	0.411	0.409	0.305	0.289	0.822	0.676	0.769	0.796
NCI-H1703					0.148	0.175	0.104	0.119												
NCI-H2023	0.52	0.404	0.315	0.172					0.681	0.66	0.619	0.413	0.6	0.542	0.443	0.362	0.54	0.428	0.431	0.391
HCC-44	0.896	1.03	1.01	0.643	0.978	0.994	1.05	1.22	1.05	1.2	1.21	1.09					1.07	1.1	1.12	1.07
NCI-H1623									0.499	0.526	0.492	0.458	0.518	0.471	0.556	0.423				
SK-LU-1	0.459	0.47	0.355	0.32					0.217	0.209	0.211	0.195	0.196	0.19	0.198	0.151	0.818	0.778	0.823	0.735
NCI-H1563									0.528	0.518	0.577	0.477	0.492	0.449	0.406	0.407				
COR-L23	0.596	0.582	0.384	0.285					0.713	0.695	0.581	0.529	0.452	0.527	0.494	0.536	0.462	0.52	0.426	0.408
NCI-H1792	0.505	0.346	0.305	0.102	0.631	0.575	0.339	0.109	0.467	0.455	0.473	0.394	0.758	0.845	0.913	0.819				
ABC-1					1	0.741	0.657	0.609	0.601	0.334	0.481	0.391	0.499	0.534	0.388	0.399	0.78	1.04	1.08	1.11
NCI-H2009	0.36	0.277	0.167	0.116					1.01	0.992	1.06	1.01	0.296	0.309	0.287	0.325	0.759	0.739	0.708	0.766
